Reference: paper PMC12040169 (PLOS Biology, 2025)

Test: in vitro
Details: human, hela cells, % viability

Row | SMILES | viability at 28.5 h, 10 µM [%]
1 | CC1CCCN(C(=O)CN2C3CCC2CC(O)(c2ccco2)C3)C1 (centres unmarked) [CBK284095] | 98.8
2 | CCOC(=O)Cn1nc(C)n2c(cc3sc(C)cc32)c1=O [CBK284096] | 82.3
3 | CCc1nn(CC(=O)N(C)C)c(=O)c2cc3sc(C)cc3n12 [CBK284102] | 110
4 | Cc1nn(CC(=O)NC2CCC2)c(=O)c2cc3ccsc3n12 [CBK284103] | 103
5 | COc1ccccc1CC(=O)N1C2CCC1CC(O)(c1ccco1)C2 (centres unmarked) [CBK284106] | 88.8
6 | CO[C@H]1CC[C@H](C(=O)N2C3CCC2CC(O)(c2ccco2)C3)CC1 (some centres unmarked) [CBK284107] | 96.7
7 | CN(C(=O)CN1C2CCC1CC(O)(c1ccco1)C2)C1CCCCC1 (centres unmarked) [CBK284108] | 102
8 | Cc1nn(CC(=O)NC2CCC2)c(=O)c2cc3sccc3n12 [CBK284110] | 108
9 | Cc1nn(CC(=O)C(C)(C)C)c(=O)c2cc3sccc3n12 [CBK284111] | 87.2
10 | O=C(C1CC1)N1CCC(Cn2nc(-c3ccccc3)ccc2=O)CC1 [CBK284115] | 89.7
11 | CN(C)C(=O)CN1N=C(C(C)(C)C)Cn2c(cc3sccc32)C1=O [CBK284116] | 89.5
12 | CN(C)c1ccc(C(=O)N2C3CCC2CC(O)(c2ccco2)C3)cc1 (centres unmarked) [CBK284117] | 93.3
13 | Cc1cc2c(cc3c(=O)n(CC(=O)NC4CCC4)nc(C)n32)s1 [CBK284118] | 107
14 | CCc1nn(CC(=O)N2CCCCC2)c(=O)c2cc3ccsc3n12 [CBK284119] | 85.7
15 | CCc1nn(CC(=O)N(CC)CC)c(=O)c2cc3sc(C)cc3n12 [CBK284121] | 86.2
16 | CCOC(=O)C(C)n1nc(CC)n2c(cc3ccsc32)c1=O (centres unmarked) [CBK284127] | 103
17 | CCc1nn(CC(=O)NC2CC2)c(=O)c2cc3ccsc3n12 [CBK284128] | 88.6
18 | CCc1nn(CC(=O)NCC2CC2)c(=O)c2cc3ccsc3n12 [CBK284129] | 87.8
19 | CCc1nn(CC(=O)NC(C)C)c(=O)c2cc3ccsc3n12 [CBK284131] | 82.6
20 | CCc1nn(CC(=O)NC2CCCC2)c(=O)c2cc3ccsc3n12 [CBK284134] | 98.4
21 | COc1ccc(CC(=O)N2C3CCC2CC(O)(c2ccco2)C3)cc1 (centres unmarked) [CBK284137] | 92.5
22 | O=C(Cc1cccc(F)c1)N1C2CCC1CC(O)(c1ccco1)C2 (centres unmarked) [CBK284138] | 95.3
23 | CCCc1nn(CC(=O)NC2CC2)c(=O)c2cc3ccsc3n12 [CBK284146] | 85.3

Row | SMILES | viability at 28.5 h, 10 µM [%]
24 | CCCc1nn(CC(=O)NC(C)C)c(=O)c2cc3ccsc3n12 [CBK284147] | 87.5
25 | CCn1c2cc(C)sc2c2cnn(CCN3CCCC3)c(=O)c21 [CBK284151] | 99.7
26 | Cc1cc2c(s1)c1cnn(CC(=O)N3CCCC3)c(=O)c1n2C [CBK284153] | 85.6
27 | CCOC(=O)C(C)n1ncc2c3sc(C)cc3n(C)c2c1=O (centres unmarked) [CBK284157] | 85.9
28 | Cc1cc2c(s1)c1cnn(CC(=O)NC(C)(C)C)c(=O)c1n2C [CBK284158] | 86.6
29 | O=C(c1nccs1)C1CCN(C(=O)Cc2ccccc2F)CC1 [CBK284161] | 87.3
30 | CC(C(=O)N1CCC(C(=O)c2nccs2)CC1)c1ccccc1 (centres unmarked) [CBK284163] | 80.8
31 | C=CCn1c2cc(C)sc2c2cnn(CC(=O)N(C)C)c(=O)c21 [CBK284164] | 83.9
32 | C=CCn1c2cc(C)sc2c2cnn(CC(=O)OCC)c(=O)c21 [CBK284165] | 82.9
33 | CCn1c2cc(C)sc2c2cnn(CC(=O)N3CCCC3)c(=O)c21 [CBK284168] | 99.8
34 | CCn1c2cc(C)sc2c2cnn(CC(=O)NC3CC3)c(=O)c21 [CBK284170] | 89.3
35 | CCCNC(=O)Cn1ncc2c3sc(C)cc3n(CC)c2c1=O [CBK284171] | 85.8
36 | O=C(c1nccs1)C1CCN(C(=O)C2CCCCC2)CC1 [CBK284175] | 107
37 | O=C(c1nccs1)C1CCN(C(=O)Cc2ccsc2)CC1 [CBK284176] | 95.5
38 | COC(=O)CN1N=C(C(C)(C)C)Cn2c(cc3sccc32)C1=O [CBK284177] | 83.3
39 | Cn1ccnc1C1(O)CC2CCC(C1)N2C(=O)Nc1ccccc1F (centres unmarked) [CBK284178] | 88.2
40 | Cn1ccnc1C1(O)CC2CCC(C1)N2C(=O)c1ccco1 (centres unmarked) [CBK284179] | 81.7
41 | Cc1cc2c(s1)c1cnn(CCN3CCCC3)c(=O)c1n2C [CBK284180] | 90
42 | CC(C)C(=O)N1CCC(n2nc(-c3cccs3)ccc2=O)CC1 [CBK284181] | 86.6
43 | CCn1c2cc(C)sc2c2cnn(CC(=O)OC)c(=O)c21 [CBK284186] | 86.3
44 | Cc1cc2c(s1)c1cnn(CC(=O)NC3CCCC3)c(=O)c1n2C [CBK284189] | 84.2
45 | CCCc1nn(CC(=O)N(C)C)c(=O)c2cc3ccsc3n12 [CBK284193] | 84.4
46 | O=C(C1CC=CCC1)N1CCCC(c2[nH]ncc2-c2ccncc2)C1 (centres unmarked) [CBK284198] | 93.2

Row | SMILES | viability at 28.5 h, 10 µM [%]
47 | O=C(c1nccs1)C1CCN(C(=O)Cc2ccc(F)cc2)CC1 [CBK284199] | 104
48 | O=C(c1nccs1)C1CCN(C(=O)c2cc(F)cc(F)c2)CC1 [CBK284200] | 96.9
49 | O=C(Cn1ncn2c(cc3ccsc32)c1=O)N1CCCCCC1 [CBK284202] | 81.7
50 | COc1ccc(C2=NNC(=O)c3cc4sccc4n3C2)cc1 [CBK284205] | 93.1
51 | O=C(c1nccs1)C1CCN(C(=O)C2(c3ccccc3)CC2)CC1 [CBK284206] | 97.4
52 | O=C(c1nccs1)C1CCN(C(=O)Cc2cccc(F)c2)CC1 [CBK284208] | 94.6
53 | CN(C)C(=O)CN1N=C(C(C)(C)C)Cn2c(cc3ccccc32)C1=O [CBK284210] | 81.8
54 | O=C(C1CC1)N1CCC(n2nc(-c3cccs3)ccc2=O)CC1 [CBK284213] | 94.7
55 | OC1(c2ccc(F)cc2)COC2(CCNCC2)C1 (centres unmarked) [CBK284214] | 93.6
56 | CCn1c2cc(C)oc2c2cnn(CC(=O)N3CCCC3)c(=O)c21 [CBK284215] | 101
57 | O=c1ccc(-c2ccc(F)cc2)nn1CC1CCNCC1 [CBK284216] | 86.5
58 | Cc1cc2c(o1)c1cnn(CC(=O)N3CCCCC3)c(=O)c1n2C [CBK284217] | 90.5
59 | Cc1cc2c(o1)c1cnn(CC(=O)N3CCCC(C)C3)c(=O)c1n2C (centres unmarked) [CBK284218] | 85
60 | Cc1cc2c(o1)c1cnn(CC(=O)N3CCCCCC3)c(=O)c1n2C [CBK284219] | 81.2
61 | CC1CNCCC1n1nc(-c2cccs2)ccc1=O (centres unmarked) [CBK284221] | 82.9
62 | Cc1cc2c(o1)c1cnn(CC(=O)N3CCCC3)c(=O)c1n2C [CBK284223] | 100
63 | CCn1c2cc(C)oc2c2cnn(CC(=O)N(C)C)c(=O)c21 [CBK284224] | 83.4
64 | Cc1sc2nc(C3CC3)n(C3CCNCC3)c(=O)c2c1C [CBK284228] | 92.3
65 | CCCc1nn(Cc2ccccn2)c(=O)c2cc3ccsc3n12 [CBK284229] | 61.1
66 | CCn1c2cc(C)oc2c2cn[nH]c(=O)c21 [CBK284230] | 76.1
67 | Cc1cc2c(s1)c1cnn(CC(=O)N(C)C)c(=O)c1n2C [CBK284231] | 99.5
68 | Cc1cc2c(o1)c1cnn(CC(=O)N(C)C)c(=O)c1n2C(C)C [CBK284233] | 88.9
69 | O=C(C1CC1)N1CCC(c2[nH]ncc2-c2ccncc2)CC1 [CBK284238] | 87.6

Row | SMILES | viability at 28.5 h, 10 µM [%]
70 | O=C(C1CCC1)N1CCC(n2nc(C3CC3)ccc2=O)CC1 [CBK284239] | 104
71 | O=C(CC1CCCCC1)N1CCC(n2nc(C3CC3)ccc2=O)CC1 [CBK284241] | 88.6
72 | O=C(Cc1cccs1)N1CCC(n2nc(C3CC3)ccc2=O)CC1 [CBK284243] | 78.6
73 | CC1CCCN(C(=O)Cn2ncn3c(cc4ccsc43)c2=O)C1 (centres unmarked) [CBK284245] | 84.5
74 | Cc1cc2c(s1)c1cnn(CC(=O)NC3CC3)c(=O)c1n2C [CBK284246] | 90.5
75 | Cc1cc2c(s1)c1cnn(CC(=O)OC(C)C)c(=O)c1n2C [CBK284247] | 102
76 | Cc1noc(C)c1C(=O)N1CCN(Cc2ccco2)C[C@@H]1C(C)C [CBK284248] | 93.9
77 | CCC(=O)N1CCC[C@H]1Cn1nc(-c2ccc(F)cc2)ccc1=O [CBK284253] | 81.1
78 | Cc1cc(C(=O)N2CCN(Cc3ccco3)C[C@@H]2C(C)C)c(C)[nH]1 [CBK284254] | 88.2
79 | O=C(NC[C@H]1CCCN(C(=O)c2cccs2)C1)c1ccco1 [CBK284261] | 94.6
80 | COc1cccc(CN2CCN(C(=O)c3ccco3)[C@@H](C)C2)c1 [CBK284267] | 110
81 | COc1ccc(NC(=O)[C@@H]2C=CCN2C(=O)C2CC2)cc1 [CBK284277] | 98.2
82 | COc1cccc(C(=O)N2CC=C[C@H]2C(=O)NC2CC2)c1 [CBK284278] | 94.4
83 | O=C(c1cccs1)N1CCC[C@H]1[C@H](O)c1nccs1 [CBK284285] | 92.1
84 | O=C(c1ccco1)N1CCC[C@H]1[C@H](O)c1nccs1 [CBK284286] | 98.5
85 | CCCC(=O)N1CCC[C@H]1Cn1nc(-c2ccc(F)cc2)ccc1=O [CBK284288] | 99.5
86 | O=C(c1ccco1)N1CCC[C@H]1[C@H](O)c1nc2ccccc2s1 [CBK284290] | 99
87 | O=C(NC1CC1)[C@@H]1C=CCN1S(=O)(=O)c1ccc(F)cc1 [CBK284294] | 92.5
88 | CC[C@H](Cn1nc(-c2cccs2)ccc1=O)NC(=O)C1CCC1 [CBK284295] | 103
89 | CCC(=O)N[C@H](CC)Cn1ncc2ccccc2c1=O [CBK284303] | 77.1
90 | CC[C@H](Cn1ncc2ccccc2c1=O)NC(=O)C(C)(C)C [CBK284304] | 90.2
91 | CCn1cc(C(=O)N2CCN(Cc3ccco3)C[C@@H]2C(C)C)cn1 [CBK284307] | 97.7
92 | CC(C)(C)OC(=O)N1CCC[C@@H](C(=O)c2cccs2)C1 [CBK284310] | 82.1
